What was measured:
Histamine H3 receptor [1] = molecular target: T1, Histamine H3 receptor (Homo sapiens, UniProt Q9Y5N1); assay: Inhibition of cAMP-stimulated beta-galactosidase transcription in SK-N-MC cells expressing human H3 receptor; assay type: functional, cell-based
Histamine H3 receptor [2] = molecular target: T1, Histamine H3 receptor; assay: Displacement of [3H]N-R-methylhistamine binding to SK-N-MC cell membranes expressing human H3 receptor
Histamine H4 receptor = Histamine H4 receptor (Homo sapiens, UniProt Q9H3N8); assay: Displacement of [3H]histamine binding to SK-N-MC cell membranes expressing human histamine H4 receptor
Histamine H2 receptor = Histamine H2 receptor (Homo sapiens, UniProt P25021); assay: Displacement of [125I]aminopotentidine binding to CHO cell membranes expressing human histamine H2 receptor
[3] = system: Histamine H3 receptor (Cavia porcellus); assay: Effect on guinea pig ileal muscle contraction evoked by electrical field stimulation (EFS)
Histamine H1 receptor = Histamine H1 receptor (Homo sapiens, UniProt P35367); assay: Displacement of [3H]mepyramine binding to COS-7 cell membranes expressing human histamine H1 receptor
Sequence of Histamine H1 receptor (P35367 whole entry): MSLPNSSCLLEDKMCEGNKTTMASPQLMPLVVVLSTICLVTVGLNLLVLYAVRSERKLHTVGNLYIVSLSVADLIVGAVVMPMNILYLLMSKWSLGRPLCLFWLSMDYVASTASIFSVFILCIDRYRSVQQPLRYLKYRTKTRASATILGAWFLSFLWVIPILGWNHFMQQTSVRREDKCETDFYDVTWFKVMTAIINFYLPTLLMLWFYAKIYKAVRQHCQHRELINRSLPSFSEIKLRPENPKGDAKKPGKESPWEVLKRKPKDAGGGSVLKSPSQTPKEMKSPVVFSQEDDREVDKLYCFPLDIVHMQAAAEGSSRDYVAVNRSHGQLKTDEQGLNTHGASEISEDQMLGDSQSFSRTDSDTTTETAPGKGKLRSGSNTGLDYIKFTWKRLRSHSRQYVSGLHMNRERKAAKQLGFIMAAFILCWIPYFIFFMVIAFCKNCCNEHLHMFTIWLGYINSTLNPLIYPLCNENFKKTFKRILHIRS

T1 sequence (Q9Y5N1 whole entry): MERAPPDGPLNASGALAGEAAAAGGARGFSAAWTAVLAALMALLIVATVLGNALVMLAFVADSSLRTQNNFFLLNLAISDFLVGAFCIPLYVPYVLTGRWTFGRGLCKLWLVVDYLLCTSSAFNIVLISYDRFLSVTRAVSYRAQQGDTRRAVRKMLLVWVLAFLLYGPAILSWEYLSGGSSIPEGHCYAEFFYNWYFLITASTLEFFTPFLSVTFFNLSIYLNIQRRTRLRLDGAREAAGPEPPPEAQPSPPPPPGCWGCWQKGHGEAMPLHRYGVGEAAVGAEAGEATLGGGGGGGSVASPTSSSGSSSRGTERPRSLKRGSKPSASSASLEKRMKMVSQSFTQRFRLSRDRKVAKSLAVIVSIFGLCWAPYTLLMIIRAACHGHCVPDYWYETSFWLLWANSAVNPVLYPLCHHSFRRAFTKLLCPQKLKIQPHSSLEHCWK
Sequence of Histamine H2 receptor (P25021 whole entry): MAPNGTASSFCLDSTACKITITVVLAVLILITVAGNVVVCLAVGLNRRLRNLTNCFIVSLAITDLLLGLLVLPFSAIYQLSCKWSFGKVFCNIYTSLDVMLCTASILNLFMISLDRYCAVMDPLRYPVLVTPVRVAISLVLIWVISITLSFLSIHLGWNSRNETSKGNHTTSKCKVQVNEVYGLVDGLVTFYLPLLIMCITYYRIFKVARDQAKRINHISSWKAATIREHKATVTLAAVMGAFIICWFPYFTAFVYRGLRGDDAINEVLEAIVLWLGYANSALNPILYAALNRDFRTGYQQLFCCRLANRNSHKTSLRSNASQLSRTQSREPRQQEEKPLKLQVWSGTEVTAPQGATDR

EC50 (Histamine H3 receptor [1]) [nM]	Ki (Histamine H3 receptor [2]) [nM]	Ki (Histamine H1 receptor) [nM]	SMILES	Ki (Histamine H4 receptor) [nM]	Ki (Histamine H2 receptor) [nM]	pD2 [3]
12.6			c1nc(CCC2CCNCC2)c[nH]1			
25.1	50.1		CCN1CCC(=Cc2c[nH]cn2)CC1			
50.1	50.1		CN1CCC(CCc2c[nH]cn2)CC1			
7.94	63.1		CC(C)N1CCC(Cc2c[nH]cn2)CC1			
3.98	15.8		c1nc(CC2CCN(C3CCCCC3)CC2)c[nH]1			
3.98	15.8		CCN1CCC(Cc2c[nH]cn2)CC1			
> 10000	63.1		CCN1CCC(CCc2c[nH]cn2)CC1			
50.1	31.6		C(=C1CCN(C2CCCCC2)CC1)c1c[nH]cn1			
2.51	5.01		CN1CCC(=Cc2c[nH]cn2)CC1			
200	100		CC(C)N1CCC(CCc2c[nH]cn2)CC1			
	6.31		C(=C1CCNCC1)c1c[nH]cn1			
63.1	63.1		CC(C)N1CCC(=Cc2c[nH]cn2)CC1			
316	158		c1nc(CCC2CCN(C3CCCCC3)CC2)c[nH]1			
0.316	1	> 10000	CN1CCC(Cc2c[nH]cn2)CC1 [METHIMEPIP]	2000	> 10000	8.26

SMILES	EC50 (Histamine H3 receptor [1]) [nM]	Ki (Histamine H3 receptor [2]) [nM]	Ki (Histamine H1 receptor) [nM]	Ki (Histamine H4 receptor) [nM]	Ki (Histamine H2 receptor) [nM]	pD2 [3]
c1ccc(CN2CCC(CCc3c[nH]cn3)CC2)cc1	> 10000	79.4				
c1ccc(CCN2CCC(CCc3c[nH]cn3)CC2)cc1	> 10000	39.8				
C(=C1CCN(CCc2ccccc2)CC1)c1c[nH]cn1	15.8	63.1				
C(=C1CCN(Cc2ccccc2)CC1)c1c[nH]cn1	79.4	398				
c1ccc(CCN2CCC(Cc3c[nH]cn3)CC2)cc1	7.94	10				
c1ccc(CCCN2CCC(Cc3c[nH]cn3)CC2)cc1	31.6	39.8				
c1ccc(CN2CCC(Cc3c[nH]cn3)CC2)cc1	15.8	50.1				
c1nc(CC2CCNCC2)c[nH]1 [IMMEPIP]		0.501		20	> 10000	8.4

Reference: ChEMBL document CHEMBL1142738, “N-substituted piperidinyl alkyl imidazoles: discovery of methimepip as a potent and selective histamine H3 receptor agonist” (J Med Chem, 2005)
